Laboratory results published in paper PMC11258331 (Scientific Reports, 2024).
Marks after values point to notes of the source that are not given here.

Key:
human carboxylesterase 1 = conditions: liver; cited from earlier work
healthy participants [1] = experiment: Adverse events and bleeding-related AEs by treatment, phase I DDI study;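 further: counts from medical review of adverse event and bleeding-related adverse event reports, collected at selected times across the dosing interval, single US site, randomised 1:1:1 to one study part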
Procedure: Participants underwent screening evaluations to determine eligibility within 35 days of study drug administration, and eligible participants were randomly assigned 1:1:1 to a single part of the study.
Safety assessments were performed at selected times throughout the dosing interval (Supplementary Table 7). The assessments were based on medical review of AE and bleeding-related AE reports, and the results of vital sign measurements, ECG measurements, physical examinations, and clinical laboratory tests.

[2] = tested on: arachidonic acid (AA)-induced platelet aggregation; experiment: AA (1 mM)-induced platelet aggregation, light transmission aggregometry; type: in vivo, human
Procedure: (§1) PD assessments were performed on Days 1 (≤ 24 h) and 5 (≤ 72 h) of each period (Supplementary Table 8); assessments included aPTT[18], FXIc[18], and bleeding time (assessed according to the PPD® Laboratories [Austin, TX] procedure where a blood pressure cuff, situated above the incision site, provided pressure at 40 mmHg and blood from the incision was wicked with filter paper every 30 s until cessation to record bleeding time). In addition, AA (1 mM), ADP) (20 µM)-, and collagen (5 μg/ml)-induced platelet aggregation assays were performed using light transmission aggregometry (PPD® Laboratories) and performed on Days 1 and 5 (≤ 24 h) for only Period 1.

[3] = tested on: platelet aggregation induced by adenosine diphosphate (ADP); experiment: ADP (20 µM)-induced platelet aggregation, light transmission aggregometry; type: in vivo, human
Procedure: as §1

[4] = Plasma pharmacokinetics (LC-MS/MS, noncompartmental; GMR by linear mixed-effects model); conditions: for AUC: AUC(TAU);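 on all read-outs here: participants at one US clinical research site, randomized 1:1:1 to a single study part, with 90% CIs from a mixed-effects model on log-transformed PK parameters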
Procedure: The study (ClinicalTrials.gov Identifier: NCT03698513) was conducted at 1 clinical research center in the United States. […] Participants underwent screening evaluations to determine eligibility within 35 days of study drug administration, and eligible participants were randomly assigned 1:1:1 to a single part of the study.
All statistical analyses and calculations were performed using SAS® software (SAS Institute, Inc., Cary, North Carolina; version 9.3). All safety and plasma PK/PD data were summarized using descriptive statistics. Descriptive summaries were presented for continuous variables using number of subjects (N), mean, SD; median, minimum, and maximum. […] CIs were constructed using a linear mixed-effects model with treatment as a fixed effect and measurements within participants as repeated measures fitted to the log-transformed PK parameters.

[5] = tested on: platelet aggregation induced by collagen; experiment: Collagen (5 μg/ml)-induced platelet aggregation, light transmission aggregometry; type: in vivo, human
Procedure: as §1

[6] = tested on: patients who underwent knee arthroplasty; conditions: postoperative treatment, 25 mg QD to 200 mg BID; cited from earlier work
[7] = tested on: cytochrome P450 (CYP)–3A4; conditions: spray-dried dispersion formulation studies; cited from earlier work
[8] = tested on: activated partial thromboplastin time (aPTT); experiment: Activated partial thromboplastin time (aPTT); type: in vivo, human; conditions: postdose on Day 5
Procedure: as §1

healthy participants [9] = experiment: Bleeding time (PPD Laboratories procedure); type: in vivo, human; conditions: milvexian alone (Treatments B, D, G)
Procedure: as §1

[10] = tested on: patients with acute ischemic stroke or high risk transient ischemic attack; conditions: 25 mg QD or 25, 50, 100, 200 mg BID on background of aspirin and clopidogrel; cited from earlier work
[11] = cited from earlier work
[12] = Day 1, plasma, Treatment F (milvexian + clopidogrel), Part 2
[13] = human, plasma, oral, geometric mean (90% CI), Day 1, plasma, Treatment A (milvexian + aspirin + clopidogrel), Part 1
[14] = milvexian alone (Treatments B, D, G), Days 1 and 5
[15] = Day 1, Treatment A vs Treatment B (milvexian alone)
[16] = human, plasma, oral, geometric mean [n] (90% CI), Day 5, plasma, Treatment D (milvexian alone), Part 2

SMILES: COC(=O)[C@H](c1ccccc1Cl)N1CCc2sccc2C1 [Clopidogrel]
- Share first-passed hydrolyzed to clopidogrel acid (human carboxylesterase 1): ~ 85 % of absorbed drug
- Anal fissure hemorrhage (healthy participants [1]; Part 2 (Treatments D-F)): 0 n (%)
- Contusion (healthy participants [1]; Part 2 (Treatments D-F)): 1 (2.8)^†† n (%)
- Deaths (healthy participants [1]; Part 2 (Treatments D-F)): 0 n (%)
- Discontinuations due to AEs (healthy participants [1]; Part 2 (Treatments D-F)): 1 (2.8)^‖ n (%)
- Epistaxis (healthy participants [1]; Part 2 (Treatments D-F)): 0 n (%)
- Gingival bleeding (healthy participants [1]; Part 2 (Treatments D-F)): 0 n (%)
- Serious AEs (healthy participants [1]; Part 2 (Treatments D-F)): 0 n (%)
- Total participants with an AE (healthy participants [1]; Part 2 (Treatments D-F)): 6 (16.7) n (%)
- Total participants with bleeding event(s) (healthy participants [1]; Part 2 (Treatments D-F)): 1 (2.8) n (%)
- Vessel puncture site bruise (healthy participants [1]; Part 2 (Treatments D-F)): 0 n (%)
- Events of contusion reported by a single participant (healthy participants [1]; bleeding AE): 1 events
- Inhibition of AA-induced aggregation compared with baseline ([2]; drug alone (Treatment E or H)): ~ 60%
- Inhibition of ADP-induced aggregation compared with baseline ([3]; drug alone (Treatment E or H)): ~ 50%
- Reduction of Cmax ([4]; Day 1, Treatment A vs Treatment C (aspirin and clopidogrel without milvexian)): 14%
- Reduction of Cmax ([4]; Day 1, Treatment F (with milvexian) vs Treatment E (clopidogrel alone)): 9.1%
- Cmax, geometric mean (90% CI) [4, 12]: 4.05 (3.09, 5.31) ng/mL
- Cmax, geometric mean [n] (90% CI) ([4]; Day 5, plasma, Treatment C (placebo + aspirin + clopidogrel), Part 1): 1.15 (0.898, 1.46) ng/mL
- Cmax [4, 13]: 3.29 ng/mL
- Cmax ([4]; human, plasma, oral, geometric mean (90% CI), Day 1, plasma, Treatment C (placebo + aspirin + clopidogrel), Part 1): 3.83 ng/mL
- Cmax ([4]; human, plasma, oral, geometric mean (90% CI), Day 1, plasma, Treatment E (placebo + clopidogrel), Part 2): 4.45 ng/mL
- half-life ([4]; human, plasma, oral, Mean T1/2, with (Treatment F) and without (Treatment E) milvexian, Days 1 and 5): 1 to 2 h
- Tmax ([4]; human, plasma, oral, Median Tmax, Day 1, Treatments F and E): 1 to 1.5 h
- Tmax ([4]; human, plasma, oral, Median Tmax, Day 5, Treatments F and E): 0.5 to 1 h
- Tmax ([4]; human, plasma, oral, Tmax, median [n] (range), Day 5, plasma, Treatment C (placebo + aspirin + clopidogrel), Part 1): 0.5 h
- Inhibition of collagen-induced aggregation compared with baseline ([5]; drug alone (Treatment E or H)): < 10%

SMILES: C[C@@H]1CCC[C@H](n2cnc(-c3cc(Cl)ccc3-n3cc(Cl)nn3)cc2=O)c2cc(ccn2)-c2c(cnn2C(F)F)NC1=O [Milvexian]
- Effect on incidence of venous thromboembolism [6]: reduced the incidence of venous thromboembolism in a dose-dependent manner
- Anal fissure hemorrhage (healthy participants [1]; Part 2 (Treatments D-F)): 0 n (%)
- Contusion (healthy participants [1]; Part 2 (Treatments D-F)): 0 n (%)
- Deaths (healthy participants [1]; Part 2 (Treatments D-F)): 0 n (%)
- Discontinuations due to AEs (healthy participants [1]; Part 2 (Treatments D-F)): 1 (2.8)^§ n (%)
- Epistaxis (healthy participants [1]; Part 2 (Treatments D-F)): 0 n (%)
- Gingival bleeding (healthy participants [1]; Part 2 (Treatments D-F)): 0 n (%)
- Serious AEs (healthy participants [1]; Part 2 (Treatments D-F)): 0 n (%)
- Total participants with an AE (healthy participants [1]; Part 2 (Treatments D-F)): 5 (13.9) n (%)
- Total participants with bleeding event(s) (healthy participants [1]; Part 2 (Treatments D-F)): 0 n (%)
- Vessel puncture site bruise (healthy participants [1]; Part 2 (Treatments D-F)): 0 n (%)
- Anal fissure hemorrhage (healthy participants [1]; Part 3 (Treatments G-I)): 1 (2.7) n (%)
- Contusion (healthy participants [1]; Part 3 (Treatments G-I)): 0 n (%)
- Deaths (healthy participants [1]; Part 3 (Treatments G-I)): 0 n (%)
- Discontinuations due to AEs (healthy participants [1]; Part 3 (Treatments G-I)): 1 (2.7)^¶ n (%)
- Epistaxis (healthy participants [1]; Part 3 (Treatments G-I)): 0 n (%)
- Gingival bleeding (healthy participants [1]; Part 3 (Treatments G-I)): 0 n (%)
- Serious AEs (healthy participants [1]; Part 3 (Treatments G-I)): 0 n (%)
- Total participants with an AE (healthy participants [1]; Part 3 (Treatments G-I)): 6 (16.2) n (%)
- Total participants with bleeding event(s) (healthy participants [1]; Part 3 (Treatments G-I)): 1 (2.7) n (%)
- Vessel puncture site bruise (healthy participants [1]; Part 3 (Treatments G-I)): 0 n (%)
- Events of anal fissure hemorrhage reported by a single participant (healthy participants [1]; bleeding AE, Part 3, Treatment G): 1 events
- Effect on AA-induced platelet aggregation ([2]; milvexian alone (Treatments B, D, G), not consistent, no correlation with milvexian concentration): a decrease in arachidonic acid (AA)-induced platelet aggregation was observed
- Change of ADP-induced platelet aggregation compared with baseline [3, 14]: < 10%
- Route of metabolism [7]: predominantly metabolized by cytochrome P450 (CYP)–3A4
- Time by which aPTT returned to baseline [8]: ≤ 72 h
- Reduction of AUC(TAU) [4, 15]: 15%
- Reduction of Cmax [4, 15]: 17%
- Tmax, median (range) ([4]; Day 1, plasma, Treatment A (milvexian + aspirin + clopidogrel), Part 1): 4.00 (2.13, 6.02) h
- Tmax, median (range) ([4]; Day 1, plasma, Treatment B (milvexian alone), Part 1): 3.00 (2.00, 4.13) h
- Tmax, median (range) ([4]; Day 1, plasma, Treatment D (milvexian alone), Part 2): 4.00 (2.00, 6.00) h
- AUC(TAU), geometric mean [n] (90% CI) [4, 12]: 5042 (4621, 5503) ng•h/mL
- Tmax, median (range) [4, 12]: 4.00 (2.00, 4.13) h
- Tmax, median (range) ([4]; Day 1, plasma, Treatment G (milvexian alone), Part 3): 4.00 (2.00, 6.02) h
- Tmax, median (range) ([4]; Day 1, plasma, Treatment I (milvexian + aspirin), Part 3): 4.00 (2.00, 6.03) h
- Tmax, median [n] (range) ([4]; Day 5, plasma, Treatment B (milvexian alone), Part 1): 3.00 (0.00, 6.00) h
- Tmax, median [n] (range) ([4]; Day 5, plasma, Treatment F (milvexian + clopidogrel), Part 2): 4.00 (1.00, 6.00) h
- AUC ([4]; human, plasma, oral, geometric mean [n] (90% CI), Day 1, plasma, Treatment B (milvexian alone), Part 1): 5610 ng·h/mL
- AUC [4, 16]: 22000 ng·h/mL
- Cmax [4, 13]: 718 ng/mL
- Cmax ([4]; human, plasma, oral, geometric mean (90% CI), Day 1, plasma, Treatment B (milvexian alone), Part 1): 868 ng/mL
- Cmax ([4]; human, plasma, oral, geometric mean (90% CI), Day 1, plasma, Treatment D (milvexian alone), Part 2): 898 ng/mL
- Cmax ([4]; human, plasma, oral, geometric mean (90% CI), Day 1, plasma, Treatment F (milvexian + clopidogrel), Part 2): 817 ng/mL
- Cmax ([4]; human, plasma, oral, geometric mean (90% CI), Day 1, plasma, Treatment G (milvexian alone), Part 3): 867 ng/mL
- Cmax ([4]; human, plasma, oral, geometric mean (90% CI), Day 1, plasma, Treatment I (milvexian + aspirin), Part 3): 850 ng/mL
- Cmax ([4]; human, plasma, oral, geometric mean [n] (90% CI), Day 5, plasma, Treatment B (milvexian alone), Part 1): 2690 ng/mL
- Cmax [4, 16]: 2670 ng/mL
- Cmax ([4]; human, plasma, oral, geometric mean [n] (90% CI), Day 5, plasma, Treatment F (milvexian + clopidogrel), Part 2): 2500 ng/mL
- Tmax ([4]; human, plasma, oral, Median Tmax, across Treatments A and B): 3 to 4 h
- Tmax ([4]; human, plasma, oral, Tmax, median [n] (range), Day 5, plasma, Treatment D (milvexian alone), Part 2): 3.05 h
- Change of collagen-induced platelet aggregation compared with baseline [5, 14]: < 10%
- Effect on bleeding time (healthy participants [9]): did not increase bleeding times
- Dose response for composite of symptomatic ischemic stroke or covert brain infarction [10]: did not produce a statistically significant dose response
- Urine excretion [11]: < 20%
